Assay results reported in ChEMBL document CHEMBL4393702, “Structure-activity relationship and synthetic methodologies of α-santonin derivatives with diverse bioactivities: A mini-review” (Eur J Med Chem, 2019).
pEC50, pIC50: −log10 of the molar value. In brackets after ≈: the same amount, converted by molar mass.

Assays:
Melanoma cell line = assay: Growth inhibition of human Melanoma cells after 48 hrs by MTT assay; type: functional
[1] = Growth inhibition of human Caov cells after 48 hrs by MTT assay; type: functional
[2] = test system: Trypanosoma brucei brucei; assay: Antitrypanosomal activity against Trypanosoma brucei brucei GUTat 3.1 after 72 hrs by Alamar Blue assay; type: functional, organism-based; settings: GUTat 3.1, 72 h
[3] = Cytotoxicity against human […] cells assessed as reduction in cell viability after 72 hrs by Alamar Blue assay; type: functional, cell-based
[4] = molecular target: T1, Peroxisome proliferator-activated receptor gamma (Homo sapiens, UniProt P37231); assay: Agonist activity at GAL4- fused PPARgamma LBD (unknown origin) expressed in African green monkey COS7 cells by luciferase reporter gene assay; type: cell-based
T1 sequence (P37231 whole entry): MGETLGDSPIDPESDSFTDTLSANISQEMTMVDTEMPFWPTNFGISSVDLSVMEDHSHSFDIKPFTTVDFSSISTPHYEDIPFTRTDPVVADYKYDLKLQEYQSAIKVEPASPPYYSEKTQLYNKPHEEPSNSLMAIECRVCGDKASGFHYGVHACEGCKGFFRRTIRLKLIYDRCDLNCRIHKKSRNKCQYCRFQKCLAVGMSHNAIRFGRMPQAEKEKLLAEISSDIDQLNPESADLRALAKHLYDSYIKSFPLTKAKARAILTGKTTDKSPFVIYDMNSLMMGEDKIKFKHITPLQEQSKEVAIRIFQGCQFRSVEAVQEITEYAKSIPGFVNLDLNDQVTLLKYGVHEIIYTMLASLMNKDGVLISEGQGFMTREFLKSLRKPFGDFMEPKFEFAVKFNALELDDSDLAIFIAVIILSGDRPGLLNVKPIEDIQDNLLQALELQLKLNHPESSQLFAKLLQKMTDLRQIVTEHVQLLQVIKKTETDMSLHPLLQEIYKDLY

P388 = assay: Cytotoxicity against mouse P388 cells assessed as reduction in cell viability incubated for 72 hrs by MTT assay; type: functional, cell-based; settings: P388, 72 h
HONE1 cell line = assay: Cytotoxicity against human HONE1 cells assessed as reduction in cell viability incubated for 72 hrs by MTT assay; type: functional, cell-based; settings: HONE1, 72 h
HT-29 = assay: Cytotoxicity against human HT-29 cells assessed as reduction in cell viability incubated for 72 hrs by MTT assay; type: functional, cell-based; settings: HT-29, 72 h
[5] = molecular target: T2, Polyunsaturated fatty acid 5-lipoxygenase (Homo sapiens, UniProt P09917); assay: Inhibition of 5-LOX (unknown origin)
T2 sequence (P09917 whole entry): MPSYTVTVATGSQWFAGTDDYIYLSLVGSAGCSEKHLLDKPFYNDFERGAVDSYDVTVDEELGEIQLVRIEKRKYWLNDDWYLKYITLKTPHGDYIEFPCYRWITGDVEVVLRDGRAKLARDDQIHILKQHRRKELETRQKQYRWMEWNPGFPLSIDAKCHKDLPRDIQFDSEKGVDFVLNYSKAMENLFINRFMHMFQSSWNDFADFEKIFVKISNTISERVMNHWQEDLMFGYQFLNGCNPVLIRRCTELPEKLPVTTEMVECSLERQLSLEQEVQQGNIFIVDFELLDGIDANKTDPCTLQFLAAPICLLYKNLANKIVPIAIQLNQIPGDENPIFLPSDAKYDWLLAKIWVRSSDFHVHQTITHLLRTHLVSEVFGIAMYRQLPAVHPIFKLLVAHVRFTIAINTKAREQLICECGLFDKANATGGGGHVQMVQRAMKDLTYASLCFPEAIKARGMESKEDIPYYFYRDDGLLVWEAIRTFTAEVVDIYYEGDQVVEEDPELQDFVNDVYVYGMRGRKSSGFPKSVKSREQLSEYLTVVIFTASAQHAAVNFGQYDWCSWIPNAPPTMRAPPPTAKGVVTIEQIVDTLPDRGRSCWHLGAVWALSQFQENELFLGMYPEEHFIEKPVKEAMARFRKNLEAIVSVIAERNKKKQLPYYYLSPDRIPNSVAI

[6] = molecular target: T2, Polyunsaturated fatty acid 5-lipoxygenase; assay: Inhibition of 5-LOX in polymorphonuclear leucocytes (unknown origin); type: cell-based
[7] = Anticancer activity against human IMR13 cells assessed as reduction in cell viability incubated for 1 hr by SRB assay; type: functional, cell-based
A549 = assay: Anticancer activity against human A549 cells assessed as reduction in cell viability incubated for 1 hr by SRB assay; type: functional, cell-based; settings: A549, 1 h
THP-1 = assay: Anticancer activity against human THP1 cells assessed as reduction in cell viability incubated for 1 hr by SRB assay; type: functional, cell-based; settings: THP-1, 1 h
HCT-116 = assay: Anticancer activity against human HCT116 cells assessed as reduction in cell viability incubated for 1 hr by SRB assay; type: functional, cell-based; settings: HCT-116, 1 h

| SMILES | GI50 (Melanoma cell line) [nM] | pIC50 [5] | pIC50 [6] | GI50 [1] [nM] | also measured |
| --- | --- | --- | --- | --- | --- |
| CCCN(CCC)C[C@@H]1C(=O)O[C@@H]2C3=C(C)C(=O)C=C[C@]3(C)CC[C@@H]12 | 4000 | – | – | 2000 | – |
| C[C@@H]1C(=O)O[C@H]2[C@H]1CC[C@@]1(C)CCC(=O)[C@](C)(OO)[C@@H]21 | – | – | – | – | EC50 [2]: 0.4 µg/mL (≈ 1.42 µM); EC50 [3]: 64.2 µg/mL (≈ 227 µM) |
| COc1ccc(N2CCN(C[C@@H]3C(=O)O[C@@H]4C5=C(C)C(=O)C=C[C@]5(C)CC[C@@H]34)CC2)cc1 | 3000 | – | – | 3000 | – |
| CCCOc1cc(C)c2c(c1C)C[C@H]([C@H](C)C(=O)O)CC2 | – | – | – | – | pEC50 [4]: 4.82 |
| C[C@@H]1C(=O)O[C@H]2C3=CC(=O)C[C@@H](O)[C@]3(C)CC[C@@H]12 | – | – | – | – | pIC50 (P388): 5.16 to 5.51; pIC50 (HONE1 cell line): 5.16 to 5.51; pIC50 (HT-29): 5.16 to 5.51 |
| CCCOc1cc(C)c2c(c1C)C[C@H]([C@@H](C)C(=O)Nc1nccs1)CC2 | – | 6.00 | 6.10 | – | – |
| CCCOc1cc(C)c2c(c1C)C[C@H]([C@@H](C)C(=O)Nc1ncc(C)s1)CC2 | – | 6.10 | 6.00 | – | – |
| CC1=C2C(=O)[C@H]([C@@H](C)C(=O)OCc3ccccc3)CC[C@@]2(C)C=CC1Cc1ccccc1 (stereo partly drawn) | – | – | – | – | pIC50 [7]: 6.64; pIC50 (A549): 6.52; pIC50 (THP-1): 6.29; pIC50 (HCT-116): 6.22 |
| CC1=C2[C@H]3OC(=O)[C@@H](CN4CCCC(C)(C)C4)[C@@H]3CC[C@@]2(C)C=CC1=O | 3000 | – | – | 2000 | – |

The next lines start with results.

| GI50 (Melanoma cell line) [nM] | pIC50 [5] | pIC50 [6] | SMILES | GI50 [1] [nM] | also measured |
| --- | --- | --- | --- | --- | --- |
| 3000 | – | – | CC1=C2[C@H]3OC(=O)[C@@H](CN4CCOCC4)[C@@H]3CC[C@@]2(C)C=CC1=O | 4000 | – |
| 2000 | – | – | CC1=C2[C@H]3OC(=O)[C@@H](CN4CCN(Cc5ccc6c(c5)OCO6)CC4)[C@@H]3CC[C@@]2(C)C=CC1=O | 4000 | – |
| – | 5.22 | 6.05 | CCCOc1cc(C)c2c(c1C)C[C@H]([C@@H](C)C(=O)Nc1ccccn1)CC2 | – | – |
| – | 5.52 | 5.10 | CCCOc1cc(C)c2c(c1C)C[C@H]([C@@H](C)C(=O)NCc1cccs1)CC2 | – | – |
